Source: ChEMBL document CHEMBL3832076, “Goodman and Gilman Ed. 10 | The Pharmaceutical Basis of Therapeutics| Table A-II-I: Pharmacokinetic Data” (2001)

Columns and labels:
[1] = Pharmacokinetic parameters for different drugs following single oral or intravenous administration in healthy subjects.; settings: human, in vivo, 100 mg
[2] = Pharmacokinetic parameters for different drugs following multiple oral or intravenous administration in healthy subjects.; assay type: ADME, organism-based; parameters: dose 200 mg/day, route oral; settings: human, in vivo, dosed compound id 68, dosed compound name IMIPRAMINE HYDROCHLORIDE, regimen Repeated dose, study dosing duration 4 weeks, tissue Plasma

Vd ([1]; iv) [L/kg]	bioavailability ([1]; iv) [%]	dose excreted ([1]; iv) [%]	half-life ([1]; iv) [h]	Cmax ([2]; po, 200 mg/day) [ng/mL]	Tmax ([2]; dose 200 mg/day, route oral) [h]	Tmax ([1]; im) [h]	bioavailability ([1]; inhaled or intranasal) [%]	clearance ([1]; iv) [mL/min/kg]	Cmax ([1]; po, Cmax) [ng/mL]	SMILES
18	42	2	16	200	2 to 6	–	–	–	–	CN(C)CCCN1c2ccccc2CCc2ccccc21.Cl [IMIPRAMINE HYDROCHLORIDE]
0.33	–	90	2.2	–	–	0.3	9	0.98	4600	NC[C@H]1O[C@H](O[C@H]2[C@H](O)[C@@H](O[C@H]3O[C@H](CO)[C@@H](O)[C@H](N)[C@H]3O)[C@H](N)C[C@@H]2N)[C@H](N)C[C@@H]1O [TOBRAMYCIN]
